Laboratory results as given in ChEMBL document CHEMBL2034897, “Discovery and optimization of benzenesulfonanilide derivatives as a novel class of 11β-HSD1 inhibitors” (Bioorg Med Chem Lett, 2012).

Target: 11-beta-hydroxysteroid dehydrogenase 1 (Homo sapiens, UniProt P28845)
Assay: Inhibition of human 11beta-HSD1 using [3H]cortisone as substrate assessed as production of [3H]-cortisol by scintillation proximity assay

Chain of 11-beta-hydroxysteroid dehydrogenase 1 (P28845 whole entry): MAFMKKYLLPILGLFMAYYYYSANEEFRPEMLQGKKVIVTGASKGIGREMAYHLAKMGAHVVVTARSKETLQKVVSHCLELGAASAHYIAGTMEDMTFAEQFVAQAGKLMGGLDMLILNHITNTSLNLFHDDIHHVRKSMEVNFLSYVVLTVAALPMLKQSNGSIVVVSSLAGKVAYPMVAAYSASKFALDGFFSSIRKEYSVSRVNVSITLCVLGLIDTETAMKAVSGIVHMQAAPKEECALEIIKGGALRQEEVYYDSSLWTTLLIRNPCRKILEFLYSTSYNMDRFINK

| SMILES | IC50 |
| --- | --- |
| CC(O)(c1ccc(NS(=O)(=O)c2ccccc2)cc1)C(F)(F)F (racemic) | > 1 µM |
| CN(c1ccc(C(C)(O)C(F)(F)F)cc1)S(=O)(=O)c1ccccc1 (racemic) | > 1 µM |
